According to patent publication US20250213581A1, “COMBINATION THERAPY OF A PI3K INHIBITOR AND KRAS INHIBITOR AND METHODS OF USE THEREOF” (Totus Medicines Inc., priority 2022, published 2025):
Like-named read-outs stand apart in the source and are kept apart here.

Experiments:
[1] = biological target: T1, PI3K (Homo sapiens, UniProt P42336); test: NanoBRET screening (binding assay) in transfected HEK293 cells; details: overnight incubation, washout
T1 construct: expressed in transfected cells; host or cells: HEK293 (Gibco 293-H), transient transfection with FuGENE HD
T1 sequence (P42336 whole entry): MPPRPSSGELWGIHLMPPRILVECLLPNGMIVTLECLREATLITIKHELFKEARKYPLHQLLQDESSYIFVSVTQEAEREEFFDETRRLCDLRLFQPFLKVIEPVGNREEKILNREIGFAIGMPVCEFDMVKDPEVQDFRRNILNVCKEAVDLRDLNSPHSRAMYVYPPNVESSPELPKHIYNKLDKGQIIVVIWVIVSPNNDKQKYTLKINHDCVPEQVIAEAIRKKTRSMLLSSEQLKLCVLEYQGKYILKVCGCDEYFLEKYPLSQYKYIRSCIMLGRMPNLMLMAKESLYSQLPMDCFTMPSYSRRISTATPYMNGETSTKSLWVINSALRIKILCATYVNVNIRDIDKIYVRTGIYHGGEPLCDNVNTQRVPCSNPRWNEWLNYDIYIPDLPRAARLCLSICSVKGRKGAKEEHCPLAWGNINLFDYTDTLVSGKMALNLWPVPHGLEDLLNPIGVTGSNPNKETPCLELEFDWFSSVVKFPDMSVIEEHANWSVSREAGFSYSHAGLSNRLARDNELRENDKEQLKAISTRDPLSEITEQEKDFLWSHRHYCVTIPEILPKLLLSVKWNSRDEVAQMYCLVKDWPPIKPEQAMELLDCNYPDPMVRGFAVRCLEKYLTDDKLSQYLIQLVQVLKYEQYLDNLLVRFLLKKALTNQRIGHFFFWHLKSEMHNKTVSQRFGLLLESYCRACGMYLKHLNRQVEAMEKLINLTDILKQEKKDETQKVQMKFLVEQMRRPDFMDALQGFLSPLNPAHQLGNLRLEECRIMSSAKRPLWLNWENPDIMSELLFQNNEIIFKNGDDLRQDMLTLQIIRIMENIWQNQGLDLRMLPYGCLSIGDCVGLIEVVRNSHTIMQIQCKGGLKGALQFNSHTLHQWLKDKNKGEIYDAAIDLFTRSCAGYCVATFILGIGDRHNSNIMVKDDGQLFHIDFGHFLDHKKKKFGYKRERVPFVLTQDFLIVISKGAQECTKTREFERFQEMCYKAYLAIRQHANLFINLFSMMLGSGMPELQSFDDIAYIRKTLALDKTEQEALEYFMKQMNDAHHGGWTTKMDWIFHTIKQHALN
T1 sequence (P27986 whole entry partner): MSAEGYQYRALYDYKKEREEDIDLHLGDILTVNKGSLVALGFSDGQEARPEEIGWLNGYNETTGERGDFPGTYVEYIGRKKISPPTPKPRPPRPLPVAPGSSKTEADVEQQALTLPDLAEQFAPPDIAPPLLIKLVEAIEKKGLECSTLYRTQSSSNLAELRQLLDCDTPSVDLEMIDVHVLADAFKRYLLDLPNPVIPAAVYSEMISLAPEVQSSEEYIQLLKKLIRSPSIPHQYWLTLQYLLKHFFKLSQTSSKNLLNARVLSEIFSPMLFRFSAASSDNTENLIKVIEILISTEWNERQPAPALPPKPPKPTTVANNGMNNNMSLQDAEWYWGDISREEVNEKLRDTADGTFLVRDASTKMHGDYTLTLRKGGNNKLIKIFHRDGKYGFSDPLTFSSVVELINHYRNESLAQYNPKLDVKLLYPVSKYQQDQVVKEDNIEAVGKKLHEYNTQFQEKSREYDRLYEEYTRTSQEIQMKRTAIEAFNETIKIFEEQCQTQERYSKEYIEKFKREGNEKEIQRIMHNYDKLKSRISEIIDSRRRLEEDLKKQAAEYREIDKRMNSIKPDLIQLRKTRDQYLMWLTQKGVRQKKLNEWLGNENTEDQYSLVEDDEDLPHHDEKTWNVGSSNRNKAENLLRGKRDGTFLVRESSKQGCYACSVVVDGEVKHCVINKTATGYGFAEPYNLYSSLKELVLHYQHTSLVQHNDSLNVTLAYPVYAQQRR
Description: Human embryonic kidney 293-H (HEK 293, Gibco 293-H, #11631017) cell lines were maintained in Dulbecco's Modified Eagle Medium, high glucose, pyruvate (DMEM, Gibco, #11995065) supplemented with 10% fetal bovine serum (FBS, Gibco, #10082147) and 1× penicillin-streptomycin (100× solution, Gibco, #15140148) at 37° C. and 5% CO2 in a water-saturated incubator. […] Opti-MEM media supplemented with 10% fetal bovine serum (Opti-MEM I reduced serum media, no phenol red, Gibco, #11058021) was used for culturing cells overnight for NanoBRET readout experiments.
HEK293 cells were cultivated appropriately prior to assay. The medium from cell flask was removed via aspiration, washed 1× with PBS followed by aspiration, trypsinized, and cells were allowed to dissociate from the flask. Trypsin was neutralized using growth medium and cells were pelleted via centrifugation at 200×g for 5 minutes. The medium was aspirated and the cells were resuspended into a single cell suspension using Opti-MEM I supplemented with 10% FBS. The cell density was adjusted to 2×10^5/mL in Opti-MEM I supplemented with 10% FBS in a sterile, conical tube. […]
A 10 μg/mL solution of DNA was prepared in Opti-MEM without serum. […] The plate on plate reader is read every hour for the next 6 hours.

[2] = tested on: Calu-1 (Lung); test: Cell proliferation assay (CellTiter-Glo, 3 days), single agent; format: cell-based
Description: (§1) Two duplicate plates were set up.
(§2) At day 0, 10 μL culture medium to each well for T0 reading. […] Compound I was diluted and 10 μL of each 10× compound I from working solutions for a concentration ranging from 10 μM to about 0.005 μM. Cisplatin was diluted to about 3.33 mM to about 150 nM.
(§3) IC50's were determined for each cell line.

[3] = tested on: HCC44 (Lung); test: as above; format: cell-based
Description: as §1, §2, §3

[4] = tested on: MIA PaCa-2 (Pancreas); test: as above; format: cell-based
Description: as §1, §2, §3

[5] = tested on: NCI-H1373 (Lung); test: as above; format: cell-based
Description: as §1, §2, §3

[6] = tested on: NCI-H1792 (Lung); test: as above; format: cell-based
Description: as §1, §2, §3

[7] = tested on: NCI-H2122 (Lung); test: as above; format: cell-based
Description: as §1, §2, §3

[8] = tested on: NCI-H23 (Lung); test: as above; format: cell-based
Description: as §1, §2, §3

[9] = tested on: NCI-H358 (Lung); test: as above; format: cell-based; details: 3 days treatment
Description: as §1, §2, §3

[10] = tested on: SW837 (Rectum); test: as above; format: cell-based
Description: as §1, §2, §3

[11] = tested on: UM-UC-3 (bladder); test: as above; format: cell-based
Description: as §1, §2, §3

[12] = tested on: UM-UC-3 (bladder) cell lines; test: Cell proliferation assay and synergy analysis, Compound I with Adagrasib; details: Homo sapiens, UMUC3, 72 h, read-out: Ave Inhibition rate (%)
Description: (§4) The cell lines tested included: UM-UC-3 (bladder), KYSE-410 (HN/Esophagus), SW1463 (rectum), Calu-1 (Lung), NCI-H358 (Lung), SW837 (Rectum), SW756 (Cervix), NCI-H2122 (Lung), NCI-H1373 (Lung), NCI-H1792 (Lung), NCI-H23 (Lung), MIA PaCa-2 (Pancreas), and HCC44 (Lung).
(§5) Cells were recovered and maintained in appropriate culture media. The cells were harvested respectively during the logarithmic growth period. The cells were then resuspended and counted using a Vi cell counter (The cell viability was measured by trypan blue exclusion assay). The cells were then diluted and 80 μL of the cell suspensions were added to 96-well plates according to plate map with final cell density. Two duplicate plates were set up. One is for day 0 reading (T0) and the other was cultured in the incubator for reading at the end point. The incubated plates were incubated overnight in humidified incubator at 37° C. with 5% CO2.
(§6) At day 0, 20 μL of culture medium was added to each well for T0 reading. 10 μL of culture medium was added to each well for day 0 (T0) reading. Then, 50 μl of CellTiter-Glo® Reagent was added to each well. The contents were then mixed for 2 minutes on an orbital shaker to facilitate cell lysis. The plates were then allowed to incubate at room temperature for 10 minutes to stabilize luminescent signal. Luminescence was then recorded using an EnVision Multi Label Reader. […] The screening plates were then placed back into the incubator for the appropriate treatment time (3 days).
(§7) For the endpoint CTG reading, 50 μL of CellTiter-Glo® Reagent was added to each well. The contents were then mixed for 2 minutes on an orbital shaker to facilitate cell lysis. The plate was allowed to incubate at room temperature for 10 minutes to stabilize luminescent signal. Luminescence was then recorded using an EnVision Multi Label Reader. The surviving rate (%)=(LumTest article−LumMedium control)/(LumNone treated−LumMedium control)×100%.
(§8) A score higher than 5 indicates synergy, and a score less than −5 indicates antagonism.

[13] = tested on: KYSE-410 (HN/Esophagus) cell lines; test: as above; details: Homo sapiens, KYSE-410, 72 h, read-out: Ave inhibition (%)
Description: as §4, §5, §6, §7, §8

[14] = tested on: SW1463 (rectum) cell lines; test: as above; details: Homo sapiens, SW1463, 72 h, read-out: Ave Inhibition (%)
Description: as §4, §5, §6, §7, §8

[15] = tested on: Calu-1 (Lung) cell lines; test: as above; details: Homo sapiens, Calu-1, 72 h, read-out: Ave of Inhibition (%)
Description: as §4, §5, §6, §7, §8

[16] = tested on: NCI-H358 (Lung) cell lines; test: as above; details: Homo sapiens, NCI-H358, 72 h, read-out: Ave of Inhibition (%)
Description: as §4, §5, §6, §7, §8

[17] = tested on: SW837 (Rectum) cell lines; test: as above; details: Homo sapiens, SW837, 72 h, read-out: Ave of Inhibition (%)
Description: as §4, §5, §6, §7, §8

[18] = tested on: SW756 (Cervix) cell lines; test: as above; details: Homo sapiens, SW756, 72 h, read-out: Ave Inhibition (%)
Description: as §4, §5, §6, §7, §8

[19] = tested on: KYSE-410 (HN/Esophagus); test: Cell proliferation assay (CellTiter-Glo, 3 days), single agent; format: cell-based; details: 3 days treatment; read-out: Absolute IC50
Description: as §1, §2, §3

[20] = tested on: SW1463 (rectum); test: as above; format: cell-based; details: 3 days treatment; read-out: Absolute IC50
Description: as §1, §2, §3

[21] = tested on: SW756 (Cervix); test: as above; format: cell-based; details: 3 days treatment; read-out: Absolute IC50
Description: as §1, §2, §3

[22] = Homo sapiens, HCC44, read-out: Average Inhibition (%) (N = 3)
[23] = Homo sapiens, MIA PaCa-2, read-out: Average Inhibition (%) (N = 3)
[24] = Homo sapiens, NCI-H1373, read-out: Average Inhibition (%) (N = 3)
[25] = Homo sapiens, NCI-H1792, read-out: Average Inhibition (%) (N = 3)
[26] = Homo sapiens, NCI-H2122, read-out: Average Inhibition (%) (N = 3)
[27] = Homo sapiens, NCI-H23, read-out: Average Inhibition (%) (N = 3)
[28] = 3 days treatment, read-out: Absolute IC50

C=CC(=O)NCC(=O)N1CCN(Cc2cc3c(N4CCOCC4)nc(-c4cnc(NC(=O)OC)cc4C(F)(F)F)nn3c2)CC1 [Compound I, methyl (5-(6-((4-(acryloylglycyl)piperazin-1-yl)methyl)-4-morpholinopyrrolo[2,1-f][1,2,4]triazin-2-yl)-4-(trifluoromethyl)pyridin-2-yl)carbamate]
inhibition of the PI3K target [1]: greater than 80%
IC50 ([2]; Homo sapiens, Calu-1, 72 h, read-out: Absolute IC50 (μM)): > 10 µM
inhibition at 0.0046 µM [3, 22]: -3.82%
inhibition at 0.0137 µM [3, 22]: -4.27%
inhibition at 0.0412 µM [3, 22]: -1.38%
inhibition at 0.1235 µM [3, 22]: 1.74%
inhibition at 0.3704 µM [3, 22]: 10.1%
inhibition at 1.1111 µM [3, 22]: 19.7%
inhibition at 3.3333 µM [3, 22]: 33.1%
inhibition at 10 µM [3, 22]: 43.7%
IC50 ([4]; Homo sapiens, MIA PaCa-2, 72 h, read-out: Absolute IC50 (μM)): > 10 µM
inhibition at 0.0046 µM [4, 23]: -5.76%
inhibition at 0.0137 µM [4, 23]: -10.3%
inhibition at 0.0412 µM [4, 23]: -8.58%
inhibition at 0.1235 µM [4, 23]: -9.5%
inhibition at 0.3704 µM [4, 23]: -5.32%
inhibition at 1.1111 µM [4, 23]: 1.46%
inhibition at 3.3333 µM [4, 23]: 13.9%
inhibition at 10 µM [4, 23]: 30.6%
IC50 ([5]; Homo sapiens, NCI-H1373, 72 h, read-out: Absolute IC50 (μM)): > 10 µM
inhibition at 0.0046 µM [5, 24]: -3.29%
inhibition at 0.0137 µM [5, 24]: -6.68%
inhibition at 0.0412 µM [5, 24]: -5.53%
inhibition at 0.1235 µM [5, 24]: -6.17%
inhibition at 0.3704 µM [5, 24]: -5.69%
inhibition at 1.1111 µM [5, 24]: -4.7%
inhibition at 3.3333 µM [5, 24]: -9.75%
inhibition at 10 µM [5, 24]: 8.28%
IC50 ([6]; Homo sapiens, NCI-H1792, 72 h, read-out: Absolute IC50 (μM)): > 10 µM
inhibition at 0.0046 µM [6, 25]: -7.35%
inhibition at 0.0137 µM [6, 25]: -1.4%
inhibition at 0.0412 µM [6, 25]: 2.27%
inhibition at 0.1235 µM [6, 25]: 6.64%
inhibition at 0.3704 µM [6, 25]: 7.05%
inhibition at 1.1111 µM [6, 25]: 12.2%
inhibition at 3.3333 µM [6, 25]: 22.4%
inhibition at 10 µM [6, 25]: 34%
inhibition at 0.0046 µM [7, 26]: -2.13%
inhibition at 0.0137 µM [7, 26]: 2.34%
inhibition at 0.0412 µM [7, 26]: 13.6%
inhibition at 0.1235 µM [7, 26]: 24%
inhibition at 0.3704 µM [7, 26]: 36.5%
inhibition at 1.1111 µM [7, 26]: 45.6%
inhibition at 3.3333 µM [7, 26]: 52.5%
inhibition at 10 µM [7, 26]: 63.2%
IC50 ([8]; Homo sapiens, NCI-H23, 72 h, read-out: Absolute IC50 (μM)): > 10 µM
inhibition at 0.0046 µM [8, 27]: 6.06%
inhibition at 0.0137 µM [8, 27]: 7.11%
inhibition at 0.0412 µM [8, 27]: 12.1%
inhibition at 0.1235 µM [8, 27]: 15.4%
inhibition at 0.3704 µM [8, 27]: 14.9%
inhibition at 1.1111 µM [8, 27]: 23.4%
inhibition at 3.3333 µM [8, 27]: 28.6%
inhibition at 10 µM [8, 27]: 37.2%
inhibitory effect on cell proliferation (in words) [9]: substantial inhibitory effect
IC50 ([10]; Homo sapiens, SW837, 72 h, read-out: Absolute IC50 (μM)): > 10 µM
IC50 ([11]; Homo sapiens, UMUC3, 72 h, read-out: Absolute IC50 (μM)): > 10 µM
inhibition at 0.0046 µM [12]: -5.05%
inhibition at 0.0137 µM [12]: -5.07%
inhibition at 0.0412 µM [12]: -7.94%
inhibition at 0.1235 µM [12]: -4.04%
inhibition at 0.3704 µM [12]: 0.18%
inhibition at 1.1111 µM [12]: 9.37%
inhibition at 3.3333 µM [12]: 27.4%
inhibition at 10 µM [12]: 44.8%
inhibition at 0.0046 µM [13]: -1.36%
inhibition at 0.0137 µM [13]: 3.14%
inhibition at 0.0412 µM [13]: 9.47%
inhibition at 0.1235 µM [13]: 17.1%
inhibition at 0.3704 µM [13]: 29.4%
inhibition at 1.1111 µM [13]: 50.5%
inhibition at 3.3333 µM [13]: 65.8%
inhibition at 10 µM [13]: 71.3%
inhibition at 0.0046 µM [14]: 4.57%
inhibition at 0.0137 µM [14]: 2.64%
inhibition at 0.0412 µM [14]: 6.01%
inhibition at 0.1235 µM [14]: 15.7%
inhibition at 0.3704 µM [14]: 21.8%
inhibition at 1.1111 µM [14]: 29.5%
inhibition at 3.3333 µM [14]: 40.4%
inhibition at 10 µM [14]: 48.4%
inhibition at 0.0046 µM [15]: -8.39%
inhibition at 0.0137 µM [15]: -5.3%
inhibition at 0.0412 µM [15]: -3.3%
inhibition at 0.1235 µM [15]: -0.27%
inhibition at 0.3704 µM [15]: 3.9%
inhibition at 1.1111 µM [15]: 31%
inhibition at 3.3333 µM [15]: 11.6%
inhibition at 10 µM [15]: 22.6%
inhibition at 0.0046 µM [16]: 0.76%
inhibition at 0.0137 µM [16]: 4.1%
inhibition at 0.0412 µM [16]: 10.8%
inhibition at 0.1235 µM [16]: 17.1%
inhibition at 0.3704 µM [16]: 25%
inhibition at 1.1111 µM [16]: 38.9%
inhibition at 3.3333 µM [16]: 50.4%
inhibition at 10 µM [16]: 61%
inhibition at 0.0046 µM [17]: -3.3%
inhibition at 0.0137 µM [17]: -0.64%
inhibition at 0.0412 µM [17]: 8.04%
inhibition at 0.1235 µM [17]: 9.71%
inhibition at 0.3704 µM [17]: 15.9%
inhibition at 1.1111 µM [17]: 19%
inhibition at 3.3333 µM [17]: 21.8%
inhibition at 10 µM [17]: 27.5%
inhibition at 0.0046 µM [18]: -1.03%
inhibition at 0.0137 µM [18]: -0.86%
inhibition at 0.0412 µM [18]: 1.55%
inhibition at 0.1235 µM [18]: 4.83%
inhibition at 0.3704 µM [18]: 8.26%
inhibition at 1.1111 µM [18]: 14.3%
inhibition at 3.3333 µM [18]: 21.6%
inhibition at 10 µM [18]: 34.6%

N.N.[Cl][Pt][Cl] [Cisplatin, reference compound]
IC50 [2, 28]: 10.2 µM
IC50 [3, 28]: 7.96 µM
IC50 [19]: 15.8 µM
IC50 [4, 28]: 7.03 µM
IC50 [5, 28]: 8.72 µM
IC50 [6, 28]: 4.88 µM
IC50 [7, 28]: 17.8 µM
IC50 [8, 28]: 3.58 µM
IC50 ([9]; read-out: Absolute IC50): 12.5 µM
IC50 [20]: 12.2 µM
IC50 [21]: 10.3 µM
IC50 [10, 28]: 42.5 µM
IC50 [11, 28]: 1.86 µM
